Experimental data from US20230025880A1, “FUSED TRICYCLIC COMPOUND AND MEDICINAL USE THEREOF” (JAPAN TOBACCO INC., priority 2020, published 2023).

Target: T1, human PDHK2 (hPDHK2) (Homo sapiens, UniProt Q15119)
T1 construct: made in house; host or cells: Escherichia coli BL21(DE3), pET-17b vector
Experiment: Inhibitory action of PDHK2 activity (residual PDH activity, NADH absorbance at 340 nm)
Format: biochemical
Conditions: PDH/hPDHK2 complex, PDHK reaction 45 min at room temperature
Method: In the case of human PDHK2 (hPDHK2, NCBI Reference Database Accession number NM_002611.4), modified hPDHK2 cDNA wherein FLAG-Tag sequence was added to the N terminus of hPDHK2 cDNA clone (pReceiver-M01/PDK2-GeneCopoeia) as the base was prepared by polymerase chain reaction (PCR) and ligated to the NdeI/EcoRI site of pET-17b vector (Merck KGaA, Catalog Number 69663-3). The recombinant construct was transformed into Escherichia coli DH5α. The recombinant clones were identified, and plasmid DNA was isolated and subjected to the DNA sequence analysis. One clone which had the expected nucleic acid sequence was selected for expression work.
For expression of hPDHK2 activity, Escherichia coli strain BL21(DE3) cells (Merck KGaA, Catalog Number 69450-4) were transformed with the pET17b vector containing modified hPDHK2 cDNA. The Escherichia coli were grown to an optical density 0.6 ([…]) at 30° C. Protein expression was induced by the addition of 500 μmol/L isopropyl-β-thiogalactopyranoside. The Escherichia coli were cultured at 20° C. for 17-18 hr and harvested by centrifugation. The harvested Escherichia coli was resuspended in a suspension buffer (20 mmol/L HEPES-NaOH, 500 mmol/L sodium chloride, 1% ethylene glycol, 0.1% Pluronic (registered trademark) F-68 (pH 8.0), cOmplete, EDTA-free (Roche) (pH 8.0)), and disrupted by a microfluidizer M-110H (MIZUHO INDUSTRIAL CO., LTD.). The precipitate was removed by centrifugation and the supernatant was added to DDDDK-tagged Protein PURIFICATION GEL (MEDICAL & BIOLOGICAL LABORATORIES CO., LTD., Code No. 3329). DDDDK-tagged Protein PURIFICATION GEL was washed with a washing buffer (20 mmol/L HEPES-NaOH, 500 mmol/L sodium chloride, 1% ethylene glycol, 0.1% Pluronic F-68 (pH 8.0)) and the bound protein was eluted with elution buffer 1 (20 mmol/L HEPES-NaOH, 100 μg/mL peptide (amino acid sequence DYKDDDDK) (SEQ ID NO: 1), 500 mmol/L sodium chloride, 1% ethylene glycol, 0.1% Pluronic F-68 (pH 8.0)). The eluted fractions containing FLAG-Tagged protein were pooled, concentrated by an ultrafiltration method, added to a gel filtration column (HiLoad 26/60 Superdex 200 (GE Healthcare Life Sciences, Code No. 17-1070-01)), and eluted with elution buffer 2 (20 mmol/L HEPES-NaOH, 150 mmol/L sodium chloride, 0.5 mmol/L ethylenediaminetetraacetic acid (EDTA), 1% ethylene glycol, 0.1% Pluronic F-68 (pH 8.0)). The eluted fractions were pooled and preserved at −80° C.
PDH (porcine heart PDH complex, Sigma P7032) and 0.5 μg/mL hPDHK2 were mixed in an assay buffer (50 mmol/L 3-morpholinopropanesulfonic acid (pH 7.0), 20 mmol/L dipotassium hydrogen phosphate, 60 mmol/L potassium chloride, 2 mmol/L magnesium chloride, 0.4 mmol/L EDTA, 0.2% poloxamer, 2 mmol/L dithiothreitol) so that the final concentration of PDH was 0.025 U/mL, and the mixture was incubated at 4° C. overnight to obtain a PDH/hPDHK2 complex solution.
PDH was mixed with the assay buffer so that the final concentration was 0.025 U/mL, and the mixture was incubated at 4° C. overnight to prepare a PDH solution.
The test compounds were diluted with DMSO. To measure an inhibitory action of the test compound on the PDHK activity in the PDH/hPDHK2 complex solution, PDH/hPDHK2 complex solution (20 μL), test compound (1.5 μL) and 1.06 μmol/L ATP (diluted with assay buffer) (8.5 μL) were added to a 384 well microplate (Greiner Bio-One 781801) and PDHK reaction was performed at room temperature for 45 min (test compound well). DMSO (1.5 μL) was added to control wells instead of test compound. In addition, DMSO (1.5 μL) was added to blank wells instead of the test compound, and PDH solution was added instead of the PDH/hPDHK2 complex solution. To measure an inhibitory action of the test compound on the PDHK activity inherent in the PDH solution, a test compound was added and the PDH solution instead of the PDH/hPDHK2 complex solution was added to a blank+test compound well. […]

Row | SMILES | IC50 [nM]
1 | COc1ccc(COCc2cc3n(n2)C[C@H](C)n2c-3cnc2[C@@](C)(O)C(F)(F)F)cc1 [Example 33] | 29
2 | C[C@H]1Cc2c(C3CC3)noc2-c2cnc([C@@](C)(O)C(F)(F)F)n21 (racemic) [Example 34, 2-(3-cyclopropyl-5-methyl-4,5-dihydroimidazo[1,5-a]isoxazolo[5,4-c]pyridin-7-yl)-1,1,1-trifluoropropan-2-ol] | 21
3 | C[C@H]1Cn2nccc2-c2cnc([C@@](C)(O)C(F)(F)F)n21 [Example 8] | 7.7
4 | C[C@H]1Cn2nc(OCC3CCN(C(=O)c4ccc(F)cc4)CC3)cc2-c2cnc([C@@](C)(O)C(F)(F)F)n21 [Example 69] | 15
5 | Cc1nnc2n1C[C@H](C)n1c-2cnc1[C@@](C)(O)C(F)(F)F [Example 16] | 12
6 | C[C@H]1Cn2c(nnc2C2(c3ccc(Cl)cc3)COC2)-c2cnc([C@@](C)(O)C(F)(F)F)n21 [Example 89] | 8.8
7 | C[C@H]1Cn2c(nnc2C(F)(F)Oc2ccc(F)cc2)-c2cnc([C@@](C)(O)C(F)(F)F)n21 [Example 62] | 6.3
8 | C[C@H]1Cn2ncc(Cl)c2-c2cnc([C@@](C)(O)C(F)(F)F)n21 [Example 11] | 34
9 | C[C@H]1Cn2c(nnc2C(F)(F)F)-c2cnc([C@@](C)(O)C(F)(F)F)n21 [Example 2, (R)-1,1,1-trifluoro-2-((S)-6-methyl-3-(trifluoromethyl)-5,6-dihydroimidazo[1,5-a] [1,2,4]triazolo[3,4-c]pyrazin-8-yl)propan-2-ol] | 26
10 | Cc1cnn2c1-c1cnc([C@@](C)(O)C(F)(F)F)n1[C@@H](C)C2 [Example 31] | 81
11 | C[C@H]1Cc2cc(C#N)ccc2-c2cnc([C@@](C)(O)C(F)(F)F)n21 (racemic) [Example 5] | 21
12 | C[C@H]1Cn2c(nnc2C(C)(C)C(F)(F)F)-c2cnc([C@@](C)(O)C(F)(F)F)n21 [Example 39] | 8.1
13 | C[C@H]1Cn2c(-c3ccc(F)cc3)nnc2-c2cnc([C@@](C)(O)C(F)(F)F)n21 [Example 21] | 6.3
14 | C[C@H]1Cc2c(C(F)(F)F)nn(C)c2-c2cnc([C@@](C)(O)C(F)(F)F)n21 (racemic) [Example 24, 2-(1,5-dimethyl-3-(trifluoromethyl)-4,5-dihydro-1H-imidazo[1,5-a]pyrazolo[3,4-c]pyridin-7-yl)-1,1,1-trifluoropropan-2-ol] | > 100
15 | C[C@H]1Cn2c(nnc2C(C)(C(F)(F)F)C(F)(F)F)-c2cnc([C@@](C)(O)C(F)(F)F)n21 [Example 100] | 9.5
16 | C[C@H]1Cn2c(nnc2C(O)(C(F)(F)F)C(F)(F)F)-c2cnc([C@@](C)(O)C(F)(F)F)n21 [Example 92] | 16
17 | C[C@H]1Cn2nc(C(F)(F)F)cc2-c2nnc([C@@](C)(O)C(F)(F)F)n21 [Example 13, (R)-1,1,1-trifluoro-2-((S)-5-methyl-9-(trifluoromethyl)-5,6-dihydropyrazolo[1,5-a] [1,2,4]triazolo[3,4-c]pyrazin-3-yl)propan-2-ol] | 13
18 | C[C@H]1Cn2c(cnc2C(F)(F)F)-c2cnc([C@@](C)(O)C(F)(F)F)n21 [Example 7] | 7.5
19 | C[C@H]1Cc2cc(C#N)ccc2-c2cnc([C@@](C)(O)C(F)(F)F)n21 [Example 94] | 8.6
20 | C[C@H]1Cn2c(nnc2C2(c3ccc(F)cc3)CC2)-c2cnc([C@@](C)(O)C(F)(F)F)n21 [Example 81] | 7.3
21 | CC(=O)N1CCC(Oc2cc3n(n2)C[C@H](C)n2c-3cnc2[C@@](C)(O)C(F)(F)F)CC1 [Example 71] | 26
22 | C[C@H]1Cn2nc(OCC3CC4CCC(C3)S4(=O)=O)cc2-c2cnc([C@@](C)(O)C(F)(F)F)n21 (stereo partly drawn) [Example 83] | 16

Other lines, results leading:

Row | IC50 [nM] | SMILES
23 | 42 | C[C@H]1Cn2nc(OCC(C)(C)S(C)(=O)=O)cc2-c2cnc([C@@](C)(O)C(F)(F)F)n21 [Example 84]
24 | 11 | C[C@H]1Cn2nc(OCc3ccccc3)cc2-c2cnc([C@@](C)(O)C(F)(F)F)n21 [Example 27]
25 | 22 | C[C@H]1Cn2nc(C(C)(C)O)cc2-c2cnc([C@@](C)(O)C(F)(F)F)n21 [Example 20]
26 | 13 | C[C@H]1Cn2nc(OC(C)(C)C(C)(C)O)cc2-c2cnc([C@@](C)(O)C(F)(F)F)n21 [Example 80]
27 | 13 | C[C@H]1Cn2nc(OCC(=O)N3CC(F)(F)C3)cc2-c2cnc([C@@](C)(O)C(F)(F)F)n21 [Example 53]
28 | 13 | C[C@H]1Cn2nc(OCCN3CCCS3(=O)=O)cc2-c2cnc([C@@](C)(O)C(F)(F)F)n21 [Example 76]
29 | 20 | C[C@H]1Cn2nc(Oc3ccc(C#N)cn3)cc2-c2cnc([C@@](C)(O)C(F)(F)F)n21 [Example 47]
30 | 23 | C[C@H]1Cn2nc(OCC3CCS(=O)(=O)CC3)cc2-c2cnc([C@@](C)(O)C(F)(F)F)n21 [Example 82]
31 | 22 | C[C@H]1Cn2nc(O)cc2-c2cnc([C@@](C)(O)C(F)(F)F)n21 [Example 28]
32 | 17 | C[C@H]1Cn2nc(OCC3COC3)cc2-c2cnc([C@@](C)(O)C(F)(F)F)n21 [Example 78]
33 | 24 | C[C@H]1Cn2nc(C#N)cc2-c2cnc([C@@](C)(O)C(F)(F)F)n21 [Example 42]
34 | 22 | C[C@H]1Cn2nc(OCC3(CC#N)CC3)cc2-c2cnc([C@@](C)(O)C(F)(F)F)n21 [Example 57]
35 | 16 | C[C@H]1Cn2nc(O[C@H]3CCOC3)cc2-c2cnc([C@@](C)(O)C(F)(F)F)n21 [Example 102]
36 | 15 | C[C@H]1Cn2nc(OCC(C)(C)C#N)cc2-c2cnc([C@@](C)(O)C(F)(F)F)n21 [Example 79]
37 | 21 | C[C@H]1Cn2nc(C=O)cc2-c2cnc([C@@](C)(O)C(F)(F)F)n21 [Example 37]
38 | 17 | C[C@H]1Cn2nc(OCCC3(C#N)CC3)cc2-c2cnc([C@@](C)(O)C(F)(F)F)n21 [Example 88]
39 | 13 | C[C@H]1Cn2nc(OCC3CN(S(C)(=O)=O)C3)cc2-c2cnc([C@@](C)(O)C(F)(F)F)n21 [Example 65]
40 | 13 | C[C@H]1Cn2nc(OCCOC(F)F)cc2-c2cnc([C@@](C)(O)C(F)(F)F)n21 [Example 96]
41 | 14 | C[C@H]1Cn2nc(C(=O)N3CC(F)(F)C3)cc2-c2cnc([C@@](C)(O)C(F)(F)F)n21 [Example 38]
42 | 17 | C[C@H]1Cn2nc(OCC3(C#N)CC3)cc2-c2cnc([C@@](C)(O)C(F)(F)F)n21 [Example 51]
43 | 13 | C[C@H]1Cn2nc(OCC(F)F)cc2-c2cnc([C@@](C)(O)C(F)(F)F)n21 [Example 46]
44 | 12 | C[C@H]1Cn2nc(C(=O)N(C)C)cc2-c2cnc([C@@](C)(O)C(F)(F)F)n21 [Example 22]
45 | 38 | C[C@H]1Cn2nc(C(F)F)cc2-c2cnc([C@@](C)(O)C(F)(F)F)n21 [Example 29]
46 | 16 | C[C@H]1Cn2nc(Oc3ccnc(C(F)(F)F)c3)cc2-c2cnc([C@@](C)(O)C(F)(F)F)n21 [Example 86]
47 | 14 | C[C@H]1Cn2nc(O[C@@H]3CCOC3)cc2-c2cnc([C@@](C)(O)C(F)(F)F)n21 [Example 101]

Same assay, conditions: at 0.1 μM, given when IC50 value could not be calculated; read-out: hPDHK2 inhibitory rate

Row | inhibition at 0.1 µM [%] | SMILES
48 | 31 | C[C@H]1Cc2c(C(F)(F)F)nn(C)c2-c2cnc([C@@](C)(O)C(F)(F)F)n21 (racemic) [Example 24, 2-(1,5-dimethyl-3-(trifluoromethyl)-4,5-dihydro-1H-imidazo[1,5-a]pyrazolo[3,4-c]pyridin-7-yl)-1,1,1-trifluoropropan-2-ol]
